Values of other authors in patent US12336538B2, “Method for controlling rats and mice with cholecalciferol baits” (priority 2014, dated 2025).

Assays:
bait shyness = settings: Gould and Holmes, Pest Manag. Sci. 2008

Row | SMILES | suitability to control a rat population (rat population; 0.1% cholecalciferol alone, only one day of feeding, Posipischil and Schnorbach 1994) | suitability to control rat population (rat population; cholecalciferol alone, Kocher and Navjot 2013) | prevention of bait shyness to cholecalciferol (bait shyness)
1 | C=C1CC[C@H](O)C/C1=C/C=C1\CCC[C@]2(C)[C@@H]([C@H](C)CCCC(C)C)CC[C@@H]12 [cholecalciferol, Cholecalciferol] | not suitable to control a rat population | not suitable to control rat population | 
2 | COc1ccc2c(c1)[C@]13CCCC[C@@H]1[C@H](C2)N(C)CC3 [dextromethorphan] |  |  | ineffective
